# Patent US9446105B2, “Chimeric antigen receptor specific for folate receptor β” (THE TRUSTEES OF THE UNIVERSITY OF PENNSYLVANIA, priority 2013, dated 2016)
# Entries after “also recorded” stand apart in the source; their conditions may differ.
# What was measured:
# ATRA-treated THP1 = test: CAR T cell recognition of ATRA-treated AML cell lines (cytokine release); type: cell-based, human; details: 10 nM ATRA
# Method: These assays were performed by co-culture of 10^5 CAR+ T cells with 10^5 target cells per well (or media alone) in triplicate in 96-well plates in a 200 μL volume of complete media. After ˜24 hours, plates were centrifuged at 1200 RPM to pellet the cells, and co-culture supernatants were removed and assayed for the presence of IFN-γ by ELISA (Biolegend). Values represent the mean of triplicate wells. IL-2, IL-4, IL-10, IFN-γ, and TNF-α cytokines were measured by flow cytometry with Cytometric Bead Array (BD Biosciences). The cell pellets were then labeled with antibodies for CD3 and CD69, and assessed by flow cytometry. Live, CD3+ gates were used for analysis of CD69 upregulation. For m909 CAR T cells, GFP was used as a marker for CAR+ cells. In some cases cell pellets were labeled for FRβ surface expression following co-cultures.
# AML cell lines were plated on d0 at 2.5×10^5 per mL in complete media with final concentration 10 nM ATRA. […] On d5 viable AML cells were washed and counted with trypan blue exclusion. Cells were then stained for FRβ surface expression and analyzed by flow cytometry, processed for RNA extraction, or used in co-cultures for functional assays.
# Cell lines and CAR+ T cells were prepared as above (for cytokine release assays). […] Culture supernatants were then collected and analyzed for cytokines as described.
# [1] = test system: FRβ expression on human AML cell lines; test: ATRA treatment of AML cell lines, FRβ surface expression by flow cytometry; type: cell-based; details: 10 nM ATRA
# Method: AML cell lines were plated on d0 at 2.5×10^5 per mL in complete media with final concentration 10 nM ATRA. On d3 fresh media with 10 nM ATRA was added to keep cells at 2.5×10^5 per mL. On d5 viable AML cells were washed and counted with trypan blue exclusion. Cells were then stained for FRβ surface expression and analyzed by flow cytometry, processed for RNA extraction, or used in co-cultures for functional assays.
# Tumor cell surface expression of FRβ was detected by m909-IgG antibody (Dimiter Dimitrov) conjugated to biotin (EZ-Link Biotinylation Kit, Thermo). To block Fc receptor binding, tumor cells were incubated with 50 ug/mL unlabeled human IgG (Jackson ImmunoResearch) for 10 min. 3-5 ug/mL m909-biotin or human IgG-biotin isotype control was added, and cells were labeled for 30 min at 4 degrees, washed with FACS buffer, and labeled with Streptavidin-APC (BD) for 25 min at 4 degrees. Cells were washed, resuspended with 7AAD, and analyzed by flow cytometry.
structure (smiles),measurement,setting,value
"CC1=C(/C=C/C(C)=C/C=C/C(C)=C/C(=O)O)C(C)(C)CCC1 [ATRA, all-trans retinoic acid]",IFNγ secretion by CAR T cells towards ATRA-treated AML cells,ATRA-treated THP1,enhances; also recorded: IFNγ production
same,immune recognition of ATRA-treated AML cells by FRβ CAR T cells,ATRA-treated THP1,increased immune recognition by FRβ CAR T cells; also recorded: increased immune recognition by m909 CAR T cells; also recorded: enhances FRβ-mediated m909 CAR T cell recognition; also recorded: increases immune recognition
same,FRβ expression on AML cells,[1],enhanced the intensity of FRβ expression on the AMLs; also recorded: increases FRβ expression; also recorded: enhanced surface expression of FRβ; also recorded: induced FRβ upregulation
